We go through five compounds from patent publication US7848888B2, “Method for identification of biologically active agents” (Vitruvean LLC, priority 2002, dated 2010).

The test system of one assay is flies. Conditions: administered orally to flies; cited from earlier work.
For a further assay, the system named is wild-type flies. Kind of assay: Motion tracking with wild-type flies. Conditions: flies fed 0.1M or 0.05M, compared to controls; FIG. 19. The assay is classed as in vivo, Drosophila. The source says:
In the present exemplary application, to capture a movie of the movement of flies within specimen container 104, robot 114 grabs a specimen container 104 and positions it in front of camera 124. However, before positioning specimen container 104 in front of camera 124, robot 114 first raises specimen container 104 above a distance, such as about 2 centimeters, above base plate 106, then releases specimen container 104, which forces the flies within specimen container 104 to fall down to the bottom of specimen container 104. Robot 114 then grabs specimen container 104 again and positions it to be filmed by camera 124. In one exemplary embodiment, camera 124 captures about 40 consecutive frames at a frame rate of about 10 frames per second. It should be noted, however, that the number of frames captured and the frame rate used can vary. Additionally, the step of dropping specimen container 104 prior to filming can be omitted.
“Movement trait data” as used herein refers to the measurements made of one or more movement traits. Examples of “movement trait data” measurements include, but are not limited to X-pos, X-speed, speed, turning, stumbling, size, T-count, P-count, T-length, Cross150, Cross250, and F-count. Descriptions of these particular measurements are provided below. • X-Pos: The X-Pos score is calculated by concatenating the lists of x-positions for all trajectories and then computing the average of all values in the concatenated list. • X-Speed: The X-Speed score is calculated by first computing the lengths of the x-components of the speed vectors by taking the absolute difference in x-positions for subsequent frames. The resulting lists of x-speeds for all trajectories are then concatenated and the average x-speed for the concatenated list is computed. • Speed: The Speed score is calculated in the same way as the X-Speed score, but instead of only using the length of the x-component of the speed vector, the length of the whole vector is used. […]

For assay [1], the system named is Drosophila expressing a mutant form of human Huntington (HD). Kind of assay: Motion tracking with Drosophila model of Huntington disease. In kind it is in vivo. Conditions: HD model with drug vs HD model without drug. As for the experimental part: “Movement trait data” as used herein refers to the measurements made of one or more movement traits. Examples of “movement trait data” measurements include, but are not limited to X-pos, X-speed, speed, turning, stumbling, size, T-count, P-count, T-length, Cross150, Cross250, and F-count. Descriptions of these particular measurements are provided below. • X-Pos: The X-Pos score is calculated by concatenating the lists of x-positions for all trajectories and then computing the average of all values in the concatenated list. • X-Speed: The X-Speed score is calculated by first computing the lengths of the x-components of the speed vectors by taking the absolute difference in x-positions for subsequent frames. The resulting lists of x-speeds for all trajectories are then concatenated and the average x-speed for the concatenated list is computed. • Speed: The Speed score is calculated in the same way as the X-Speed score, but instead of only using the length of the x-component of the speed vector, the length of the whole vector is used. That is, [length]=square root of ([x-length]^2+[y-length]^2). • Turning: The Turning score is calculated in the same way as the Speed score, but instead of using the length of the speed vector, the absolute angle between the current speed vector and the previous one is used, giving a value between 0 and 90 degrees. • Stumbling: The Stumbling score is calculated in the same way as the Speed score, but instead of using the length of the speed vector, the absolute angle between the current speed vector and the direction of body orientation is used, giving a value between 0 and 90 degrees. • Size: The Size score is calculated in the same way as the Speed score, but instead of using the length of the speed vector, the size of the detected fly is used. • T-Count: The T-Count score is the number of trajectories detected in the movie. • P-Count: The P-Count score is the total number of points in the movie (i.e., the number of points in each trajectory, summed over all trajectories in the movie). • T-Length: The T-Length score is the sum of the lengths of all speed vectors in the movie, giving the total length all flies in the movie have walked. • Cross150: The Cross150 score is the number of trajectories that either crossed the line at x=150 in the negative x-direction (from bottom to top of the vial) during the movie, or that were already above that line at the start of the movie. […] In other words this score measures the number of detected flies that either managed to hold on to the tube or that managed to climb above the x=150 line within the length of the movie. • Cross250: The Cross250 score is equivalent to the Cross150 score, but uses a line at x=250 instead. • F-Count: The F-Count score counts the number of detected flies in each individual frame, and then takes the maximum of these values over all frames. […]
Drosophila expressing a mutant form of human Huntington (HD) have a functional deficit that is quantifiable, reproducible, and is suitable for automated high-throughput screening. Drosophila (or specimen) movements can be analyzed for various characteristics and/or traits. For example, statistics on the movements of the specimens, such as the x and y travel distance, path length, speed, turning, and stumbling, can be calculated. […]
Differences between the HD model+/−drug (HDAC inhibitor, TSA) and wild type (control)+/−drug (TSA) can clearly be detected using the motion tracking software. […]

Turning to `NCC1(CC(=O)O)CCCCC1` [Gabapentin], in the assay with flies, the “seizure and mean recovery times following seizure” value is reported as “reduce”.

As to `[Cl-].[Li+]` [LiCl, Lithium Chloride], in the assay with wild-type flies, the incidence of stumbling result is given as “increased incidence”, the incidence of turning entry is recorded as “increased incidence” and the speed result is recorded as “significant reduction”.

Take `O=C1NC(=O)C(c2ccccc2)(c2ccccc2)N1` [Phenytoin]: in the assay on flies, the “seizure and mean recovery times following seizure” value is “reduce”.

On to `CC(/C=C/C(=O)NO)=C\[C@@H](C)C(=O)c1ccc(N(C)C)cc1` [TSA], for which the Speed score result in assay [1] (p-values, FIG. 21B) is given as “do not yield significant values”. The Turning score entry in assay [1] (p-values, FIG. 21D) is “do not yield significant values”. Moreover, the Stumbling score result in assay [1] (p-values, FIG. 21F) is recorded as “do not yield significant values”. Besides, in assay [1] (p-values, FIG. 21H), the T-Length score result is given as “best highlight the therapeutic effect”. Also, the “motor performance, Cross150 score (climbing ability)” value in assay [1] (FIG. 20, 21J) is “restore climbing ability for HD flies to almost the same level as for wt flies”.

Consider `CC1(C)O[C@@H]2[C@@H](CO[C@@]3(COS(N)(=O)=O)OC(C)(C)O[C@@H]23)O1` [Topiramate], for which, in the assay with flies, the “seizure and mean recovery times following seizure” value is listed as “reduce”.
